Measurements reported in patent US11566007B2, “Ras inhibitors” (Revolution Medicines, Inc., priority 2019, dated 2023).

Key:
[1] = system: NCI-H358 (K-Ras G12C); assay: CellTiter-Glo cell viability assay, NCI-H358; format: cell-based, human; details: Homo sapiens, NCI-H358, 120 h, NCI-H358, 5-day treatment; class symbols; read-out: Additional H358 Cell Viability assay data (K-Ras G12C, IC50)
How it was run: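 Viability measured by CellTiter-Glo luminescence on day 5 following direct addition of compound to plated cells. Values expressed as percent of mean DMSO signal; curves fitted with a four-parameter logistic model.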

[2] = biological target: K-Ras G12C (Homo sapiens (Human), UniProt P01116+P62937, G12C); assay: Ras-Raf (BRAF RBD) disruption / FRET / MOA assay, KRAS G12C; format: biochemical; details: KRAS G12C; Ras-Raf disruption/FRET/MOA assay; read-out: IC50* KRAS G12C FRET data
How it was run: (§1)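 Ras:RAF disruption was scored as a fall in TR-FRET ratio relative to DMSO. Compound ranged in 3-fold steps over 10 points from 30 μM final; incubation ran 3 h at 25° C, detection antibodies a further 1.5 h. Reported as IC50.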

[3] = biological target: K-Ras G13C (Homo sapiens (Human), UniProt P01116+P62937, G13C); assay: Ras-Raf (BRAF RBD) disruption / FRET / MOA assay, KRAS G13C; format: biochemical; details: KRAS G13C; Ras-Raf disruption/FRET/MOA assay; read-out: IC50* KRAS G13C FRET data
How it was run: as §1

[4] = biological target: KRAS G12V (Homo sapiens (Human), UniProt P01116+P62937, G12V); assay: Ras-Raf (BRAF RBD) disruption / FRET / MOA assay, KRAS G12V; format: biochemical; details: read-out: IC50* KRAS G12V FRET data
How it was run: as §1

[5] = biological target: KRAS WT (Homo sapiens (Human), UniProt P01116+P62937); assay: Ras-Raf (BRAF RBD) disruption / FRET / MOA assay, KRAS WT; format: biochemical; details: read-out: IC50* KRAS WT FRET data
How it was run: as §1

[6] = biological target: KRAS G13D (Homo sapiens (Human), UniProt P01116+P62937, G13D); assay: Ras-Raf (BRAF RBD) disruption / FRET / MOA assay, KRAS G13D; format: biochemical; details: read-out: IC50* KRAS G13D FRET data
How it was run: as §1

[7] = biological target: KRAS Q61H (Homo sapiens (Human), UniProt P01116+P62937, Q61H); assay: Ras-Raf (BRAF RBD) disruption / FRET / MOA assay, KRAS Q61H; format: biochemical; details: Ras-Raf disruption/FRET/MOA assay; class symbols; read-out: KRAS Q61H FRET data IC50
How it was run: (§2)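 TR-FRET disruption of nucleotide-loaded Ras binding to BRAF RBD via compound-driven ternary complex with cyclophilin A. Compound as 10-point 3-fold series from 30 μM final, 3 h at 25° C, then anti-His Eu-W1024 (10 nM) and anti-GST allophycocyanin (50 nM) for 1.5 h. IC50 from decreased FRET ratio versus DMSO.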

[8] = biological target: NRAS G12C (Homo sapiens (Human), UniProt P01111+P62937, G12C); assay: Ras-Raf (BRAF RBD) disruption / FRET / MOA assay, NRAS G12C; format: biochemical; details: read-out: IC50* NRAS G12C FRET data
How it was run: as §1

[9] = biological target: NRAS Q61R (Homo sapiens (Human), UniProt P01111+P62937, Q61R); assay: Ras-Raf (BRAF RBD) disruption / FRET / MOA assay, NRAS Q61R; format: biochemical; details: NRAS Q61R; Ras-Raf disruption/FRET/MOA assay; read-out: IC50* NRAS Q61R FRET data
How it was run: as §2

[10] = biological target: NRAS WT (Homo sapiens (Human), UniProt P01111+P62937); assay: Ras-Raf (BRAF RBD) disruption / FRET / MOA assay, NRAS WT; format: biochemical; details: read-out: IC50* NRAS WT FRET data
How it was run: as §2

Sequence of NRAS Q61R (P01111 whole entry Q61R): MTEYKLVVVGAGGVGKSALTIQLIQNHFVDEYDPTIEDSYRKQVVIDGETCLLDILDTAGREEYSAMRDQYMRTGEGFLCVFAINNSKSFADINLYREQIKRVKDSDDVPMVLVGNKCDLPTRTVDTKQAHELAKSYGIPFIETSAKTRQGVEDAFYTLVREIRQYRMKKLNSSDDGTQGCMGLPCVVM
Sequence of NRAS Q61R (P62937 whole entry): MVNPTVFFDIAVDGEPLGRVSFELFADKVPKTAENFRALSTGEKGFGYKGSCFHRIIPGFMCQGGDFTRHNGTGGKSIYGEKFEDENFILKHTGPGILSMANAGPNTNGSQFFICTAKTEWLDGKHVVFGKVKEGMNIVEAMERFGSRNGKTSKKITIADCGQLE
Sequence of NRAS G12C (P01111 whole entry G12C): as the sequence (P01111 whole entry Q61R) above, with G12C, R61Q counted along it
Sequence of NRAS G12C (P62937 whole entry): as the sequence (P62937 whole entry) above
Sequence of KRAS G12V (P01116-2 other isoform, or with tags, fused parts or gaps G12V): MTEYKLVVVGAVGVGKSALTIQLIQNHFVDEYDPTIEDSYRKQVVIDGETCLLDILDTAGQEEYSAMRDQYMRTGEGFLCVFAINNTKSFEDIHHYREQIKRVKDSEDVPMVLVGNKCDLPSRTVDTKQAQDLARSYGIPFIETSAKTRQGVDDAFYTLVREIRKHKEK
Sequence of KRAS G12V (P62937 whole entry): as the sequence (P62937 whole entry) above
Sequence of KRAS WT (P01116-2 other isoform, or with tags, fused parts or gaps): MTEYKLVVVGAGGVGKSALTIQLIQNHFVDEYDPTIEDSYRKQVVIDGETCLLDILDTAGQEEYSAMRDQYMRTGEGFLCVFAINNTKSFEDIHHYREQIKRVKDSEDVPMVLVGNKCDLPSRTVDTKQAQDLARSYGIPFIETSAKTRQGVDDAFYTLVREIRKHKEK
Sequence of KRAS WT (P62937 whole entry): as the sequence (P62937 whole entry) above
Sequence of K-Ras G12C (P01116-2 other isoform, or with tags, fused parts or gaps G12C): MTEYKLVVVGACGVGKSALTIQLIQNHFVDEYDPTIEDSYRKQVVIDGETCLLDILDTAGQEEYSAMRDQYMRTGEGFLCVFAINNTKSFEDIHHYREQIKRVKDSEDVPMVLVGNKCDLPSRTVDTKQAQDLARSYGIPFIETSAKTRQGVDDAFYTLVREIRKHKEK
Sequence of K-Ras G12C (P62937 whole entry): as the sequence (P62937 whole entry) above
Sequence of KRAS Q61H (P01116-2 other isoform, or with tags, fused parts or gaps Q61H): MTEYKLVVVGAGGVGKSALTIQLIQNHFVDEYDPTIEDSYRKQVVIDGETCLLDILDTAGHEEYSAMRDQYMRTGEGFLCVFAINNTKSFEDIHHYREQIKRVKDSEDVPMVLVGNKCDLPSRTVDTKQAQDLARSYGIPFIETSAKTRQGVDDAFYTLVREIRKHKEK
Sequence of KRAS Q61H (P62937 whole entry): as the sequence (P62937 whole entry) above
Sequence of K-Ras G13C (P01116-2 other isoform, or with tags, fused parts or gaps G13C): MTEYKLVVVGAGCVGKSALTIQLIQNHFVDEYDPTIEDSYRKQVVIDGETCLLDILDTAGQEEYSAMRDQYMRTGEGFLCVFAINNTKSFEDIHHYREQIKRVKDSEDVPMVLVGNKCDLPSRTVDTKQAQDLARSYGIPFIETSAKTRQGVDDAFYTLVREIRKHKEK
Sequence of K-Ras G13C (P62937 whole entry): as the sequence (P62937 whole entry) above
Sequence of NRAS WT (P01111 whole entry): as the sequence (P01111 whole entry Q61R) above, with R61Q counted along it
Sequence of NRAS WT (P62937 whole entry): as the sequence (P62937 whole entry) above
Sequence of KRAS G13D (P01116-2 other isoform, or with tags, fused parts or gaps G13D): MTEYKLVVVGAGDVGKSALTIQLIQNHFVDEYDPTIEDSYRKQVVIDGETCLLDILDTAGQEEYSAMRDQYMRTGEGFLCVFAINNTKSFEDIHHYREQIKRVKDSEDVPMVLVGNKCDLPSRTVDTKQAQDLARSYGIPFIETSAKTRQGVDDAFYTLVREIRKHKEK
Sequence of KRAS G13D (P62937 whole entry): as the sequence (P62937 whole entry) above

Compound	IC50 [1]	IC50 [2]	IC50 [3]	IC50 [4]	IC50 [5]	IC50 [6]	IC50 [7]	IC50 [8]	IC50 [9]	IC50 [10]
CCn1c(-c2cccnc2[C@H](C)OC)c2c3cc(ccc31)-c1csc(n1)C[C@H](NC(=O)[C@H](C(C)C)N(C)C(=O)N1CCC3(CC1)CN(C(=O)/C=C/CN1CCOCC1)C3)C(=O)N1CCC[C@H](N1)C(=O)OCC(C)(C)C2 (atropisomer, axis not shown) [Example A669]	10 to 100 nM	10 to 100 nM	100 to 1000 nM	100 to 1000 nM	100 to 1000 nM	100 to 1000 nM	10 to 100 nM	10 to 100 nM	10 to 100 nM	10 to 100 nM
CCn1c(-c2cccnc2[C@H](C)OC)c2c3cc(ccc31)-c1csc(n1)C[C@H](NC(=O)[C@H](C(C)C)N(C)C(=O)N1CCC3(CC1)CN(C(=O)/C=C/CN1CCCCC1)C3)C(=O)N1CCC[C@H](N1)C(=O)OCC(C)(C)C2 (atropisomer, axis not shown) [Example A670]	10 to 100 nM	100 to 1000 nM	100 to 1000 nM	100 to 1000 nM	100 to 1000 nM	100 to 1000 nM	100 to 1000 nM	100 to 1000 nM	100 to 1000 nM	100 to 1000 nM
C/C=C/C(=O)N1CC2(CCN(C(=O)N(C)[C@H](C(=O)N[C@H]3Cc4nc(cs4)-c4ccc5c(c4)c(c(-c4cccnc4[C@H](C)OC)n5CC)CC(C)(C)COC(=O)[C@@H]4CCCN(N4)C3=O)C(C)C)CC2)C1 (atropisomer, axis not shown) [Example A671]	10 to 100 nM	10 to 100 nM	100 to 1000 nM	100 to 1000 nM	100 to 1000 nM	100 to 1000 nM	10 to 100 nM	10 to 100 nM	100 to 1000 nM	100 to 1000 nM
CCn1c(-c2cccnc2[C@H](C)OC)c2c3cc(ccc31)-c1nc(co1)C[C@H](NC(=O)[C@@H](COC1CN(C(=O)C#CC(C)(C)N(C)C)C1)C(C)C)C(=O)N1CCC[C@H](N1)C(=O)OCC(C)(C)C2 (atropisomer, axis not shown) [Example A675, (2R)-2-(((1-(4-(dimethylamino)-4-methylpent-2-ynoyl)azetidin-3-yl)oxy)methyl)-N-((6^3S,4S,Z)-1^1-ethyl-1^2-(2-((S)-1-methoxyethyl)pyridin-3-yl)-10,10-dimethyl-5,7-dioxo-6^1,6^2,6^3,6^4,6^5,6^6-hexahydro-1^1H-8-oxa-2(2,4)-oxazola-1(5,3)-indola-6(1,3)-pyridazinacycloundecaphane-4-yl)-3-methylbutanamide]	< 10 nM	10 to 100 nM	> 10000 nM	> 10000 nM	> 10000 nM	> 10000 nM	> 10000 nM	10 to 100 nM	> 10000 nM	> 10000 nM
C=CC(=O)N1CCN(C(=O)N(C)[C@H](C(=O)N[C@H]2Cc3nc(cs3)-c3ccc4c(c3)c(c(-c3cccnc3[C@H](C)OC)n4CC(F)(F)F)CC(C)(C)COC(=O)[C@@H]3CCCN(N3)C2=O)C(C)C)CC12CC2 (atropisomer, axis not shown) [Example A679]	10 to 100 nM	10 to 100 nM	10 to 100 nM	10 to 100 nM	10 to 100 nM	100 to 1000 nM	10 to 100 nM	10 to 100 nM	10 to 100 nM	10 to 100 nM
C=C(OC)C(=O)N1CC2(CCN(C(=O)N(C)[C@H](C(=O)N[C@H]3Cc4nc(cs4)-c4ccc5c(c4)c(c(-c4cccnc4[C@H](C)OC)n5CC)CC(C)(C)COC(=O)[C@@H]4CCCN(N4)C3=O)C(C)C)CC2)C1 (atropisomer, axis not shown) [Example A681]	10 to 100 nM	10 to 100 nM	100 to 1000 nM	100 to 1000 nM	100 to 1000 nM	100 to 1000 nM	10 to 100 nM	10 to 100 nM	100 to 1000 nM	100 to 1000 nM
C=C(F)C(=O)N1CC2(CCN(C(=O)N(C)[C@H](C(=O)N[C@H]3Cc4nc(cs4)-c4ccc5c(c4)c(c(-c4cccnc4[C@H](C)OC)n5CC)CC(C)(C)COC(=O)[C@@H]4CCCN(N4)C3=O)C(C)C)CC2)C1 (atropisomer, axis not shown) [Example A682]	10 to 100 nM	10 to 100 nM	100 to 1000 nM	100 to 1000 nM	100 to 1000 nM	100 to 1000 nM	10 to 100 nM	10 to 100 nM	100 to 1000 nM	100 to 1000 nM
C=CC(=O)N1CC2(CCN2C(=O)N(C)[C@H](C(=O)N[C@H]2Cc3cccc(c3)-c3ccc4c(c3)c(c(-c3cccnc3[C@H](C)OC)n4CC)CC(C)(C)COC(=O)[C@@H]3CCCN(N3)C2=O)C(C)C)C1 (atropisomer, axis not shown) [Example A684]	< 10 nM	< 10 nM	100 to 1000 nM	100 to 1000 nM	100 to 1000 nM	100 to 1000 nM	10 to 100 nM	< 10 nM	100 to 1000 nM	100 to 1000 nM
C=CC(=O)N1C[C@H]2CN(C(=O)N(C)[C@H](C(=O)N[C@H]3Cc4nc(cs4)-c4ccc5c(c4)c(c(-c4cccnc4[C@H](C)OC)n5CC)CC(C)(C)COC(=O)[C@@H]4CCCN(N4)C3=O)C(C)C)[C@H]2C1 (atropisomer, axis not shown) [Example A686]	< 10 nM	10 to 100 nM	100 to 1000 nM	100 to 1000 nM	100 to 1000 nM	100 to 1000 nM	10 to 100 nM	10 to 100 nM	100 to 1000 nM	100 to 1000 nM
C=CC(=O)N1CC[C@H]2[C@@H](C1)CN2C(=O)N(C)[C@H](C(=O)N[C@H]1Cc2nc(cs2)-c2ccc3c(c2)c(c(-c2cccnc2[C@H](C)OC)n3CC)CC(C)(C)COC(=O)[C@@H]2CCCN(N2)C1=O)C(C)C (atropisomer, axis not shown) [Example A687]	10 to 100 nM	100 to 1000 nM	100 to 1000 nM	100 to 1000 nM	100 to 1000 nM	100 to 1000 nM	10 to 100 nM	100 to 1000 nM	100 to 1000 nM	100 to 1000 nM
CCn1c(-c2cccnc2[C@H](C)OC)c2c3cc(ccc31)-c1csc(n1)C[C@H](NC(=O)C[C@@H]1COC3(CN(C(=O)C#CC(C)(C)N(C)C)C3)O1)C(=O)N1CCC[C@H](N1)C(=O)OCC(C)(C)C2 (atropisomer, axis not shown) [Example A691]	< 10 nM	< 10 nM	1000 to 10000 nM	1000 to 10000 nM	1000 to 10000 nM	1000 to 10000 nM	1000 to 10000 nM	< 10 nM	1000 to 10000 nM	1000 to 10000 nM
